Several values for one entry are separate records, joined by “and”; a condition that tells them apart may be missing. Identical values can stand only once. Toxic doses and inconclusive results are not listed. Rule for the calls: active = survival T/C of 150% or more; inactive = T/C below 125% in these data.
Tested on: BDF1 mice, B16 melanoma ip, median survival T/C
Test: NCI In Vivo Anticancer Drug Screen. Data for tumor model B16 Melanoma (intraperitoneal) in B6D2F1 (BDF1) mice
Conditions: endpoint: median survival time, higher = longer survival
Procedure, shortened: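 Each result divides a survival or tumor-size measurement in the compound-treated group by the same measurement in the vehicle group.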

[1] = dose: 6.25 mg/kg/injection, schedule: Q01DX009 (ip), vehicle: saline with Tween-80
[2] = dose: 12.5 mg/kg/injection, schedule: Q01DX009 (ip), vehicle: saline with Tween-80
[3] = dose: 25.0 mg/kg/injection, schedule: Q01DX009 (ip), vehicle: saline with Tween-80
[4] = dose: 25.0 mg/kg/injection, schedule: Q01DX009 (ip), vehicle: suspension in saline
[5] = dose: 25.0 mg/kg/injection, schedule: Q01DX009 (ip), vehicle: saline
[6] = dose: 50.0 mg/kg/injection, schedule: Q01DX009 (ip), vehicle: saline with Tween-80
[7] = dose: 100.0 mg/kg/injection, schedule: Q01DX009 (ip), vehicle: saline
[8] = dose: 100.0 mg/kg/injection, schedule: Q01DX009 (ip), vehicle: saline with Tween-80

Measured: T/C

ClCc1cccc2c(CCl)cccc12
inactive: [1] 98 % of control | [2] 98 % of control | [3] 102 % of control | [4] 100 % of control | dose: 50.0 mg/kg/injection, schedule: Q01DX009 (ip), vehicle: suspension in saline 107 % of control | dose: 100.0 mg/kg/injection, schedule: Q01DX009 (ip), vehicle: suspension in saline 90 % of control

C=C(Br)CNC(=O)CCC
inactive: dose: 2.5 mg/kg/injection, schedule: Q01DX009 (ip), vehicle: saline 103 % of control | dose: 5.0 mg/kg/injection, schedule: Q01DX009 (ip), vehicle: saline 112 % of control | dose: 10.0 mg/kg/injection, schedule: Q01DX009 (ip), vehicle: saline 104 % of control

C=C(CCC(C(=O)O)C1CCC2(C)C3=C(CCC12C)C1(C)CCC(O)C(C)(C)C1CC3)C(C)C (configuration not stated)
inactive: dose: 20.0 mg/kg/injection, schedule: Q01DX009 (sc), vehicle: steriod suspending solution 98 % of control | dose: 40.0 mg/kg/injection, schedule: Q01DX009 (sc), vehicle: steriod suspending solution 105 % of control | dose: 80.0 mg/kg/injection, schedule: Q01DX009 (sc), vehicle: steriod suspending solution 101 % of control | dose: 160.0 mg/kg/injection, schedule: Q01DX009 (sc), vehicle: steriod suspending solution 92 % of control | dose: 165.0 mg/kg/injection, schedule: Q01DX009 (sc), vehicle: steriod suspending solution 94 % of control | dose: 250.0 mg/kg/injection, schedule: Q01DX009 (sc), vehicle: steriod suspending solution 102 % of control

CCCCCCC(=O)O[C@H]1CC[C@H]2[C@@H]3CCC4=CC(=O)CC[C@]4(C)[C@H]3CC[C@]12C
inactive: dose: 10.0 mg/kg/injection, schedule: Q01DX009 (ip), vehicle: Klucel (hydroxypropylcellulose) (HPC) 96 % of control | dose: 20.0 mg/kg/injection, schedule: Q01DX009 (ip), vehicle: Klucel (hydroxypropylcellulose) (HPC) 110 % of control | dose: 40.0 mg/kg/injection, schedule: Q01DX009 (ip), vehicle: Klucel (hydroxypropylcellulose) (HPC) 89 % of control | dose: 80.0 mg/kg/injection, schedule: Q01DX009 (ip), vehicle: Klucel (hydroxypropylcellulose) (HPC) 103 % of control

c1ccc([Te][Te]c2ccccc2)cc1
inactive: dose: 3.0 mg/kg/injection, schedule: Q01DX009 (ip), vehicle: saline with Tween-80 123 % of control | dose: 6.0 mg/kg/injection, schedule: Q01DX009 (ip), vehicle: saline with Tween-80 123 % of control

COc1cc2cc3c4cc(OC)c(OC)cc4cc[n+]3c(C)c2cc1OC (tested in a mixture with another compound)
inactive: dose: 6.25 mg/kg/injection, schedule: Q01DX009 (ip), vehicle: saline 106 % of control | dose: 6.25 mg/kg/injection, schedule: Q04DX003 (ip), vehicle: saline with Tween-80 88 % of control | dose: 6.25 mg/kg/injection, schedule: Q04DX003 (ip), vehicle: saline 107 % of control | dose: 8.0 mg/kg/injection, schedule: Q01DX009 (ip), vehicle: Klucel (hydroxypropylcellulose) (HPC) 90 % of control and 91 % of control | dose: 8.0 mg/kg/injection, schedule: Q01DX009 (ip), vehicle: clinical formulation 100 % of control and 109 % of control | dose: 8.0 mg/kg/injection, schedule: Q01DX009 (ip), vehicle: other 99 % of control and 107 % of control | dose: 8.0 mg/kg/injection, schedule: Q01DX009 (ip), vehicle: water 87 % of control | dose: 12.5 mg/kg/injection, schedule: Q01DX009 (ip), vehicle: saline 93 % of control | dose: 12.5 mg/kg/injection, schedule: Q01DX009 (ip), vehicle: water 95 % of control | dose: 12.5 mg/kg/injection, schedule: Q04DX003 (ip), vehicle: saline with Tween-80 100 % of control | dose: 12.5 mg/kg/injection, schedule: Q04DX003 (ip), vehicle: saline 105 % of control | dose: 16.0 mg/kg/injection, schedule: Q01DX009 (ip), vehicle: Klucel (hydroxypropylcellulose) (HPC) 91 % of control and 92 % of control and 96 % of control | dose: 16.0 mg/kg/injection, schedule: Q01DX009 (ip), vehicle: clinical formulation 94 % of control and 106 % of control | dose: 16.0 mg/kg/injection, schedule: Q01DX009 (ip), vehicle: other 97 % of control and 111 % of control and 123 % of control | dose: 16.0 mg/kg/injection, schedule: Q01DX009 (ip), vehicle: water 96 % of control and 106 % of control | [5] 87 % of control | dose: 25.0 mg/kg/injection, schedule: Q01DX009 (ip), vehicle: water 109 % of control | dose: 25.0 mg/kg/injection, schedule: Q04DX003 (ip), vehicle: saline with Tween-80 102 % of control | dose: 25.0 mg/kg/injection, schedule: Q04DX003 (ip), vehicle: saline 102 % of control | dose: 32.0 mg/kg/injection, schedule: Q01DX009 (ip), vehicle: Klucel (hydroxypropylcellulose) (HPC) 90 % of control and 93 % of control and 95 % of control | dose: 32.0 mg/kg/injection, schedule: Q01DX009 (ip), vehicle: clinical formulation 96 % of control and 105 % of control | dose: 32.0 mg/kg/injection, schedule: Q01DX009 (ip), vehicle: other 103 % of control and 105 % of control (2×) | dose: 32.0 mg/kg/injection, schedule: Q01DX009 (ip), vehicle: water 94 % of control and 111 % of control | dose: 33.0 mg/kg/injection, schedule: Q01DX009 (ip), vehicle: saline with Tween-80 105 % of control | [6] 110 % of control | dose: 50.0 mg/kg/injection, schedule: Q01DX009 (ip), vehicle: water 93 % of control | dose: 50.0 mg/kg/injection, schedule: Q04DX003 (ip), vehicle: saline with Tween-80 97 % of control | dose: 50.0 mg/kg/injection, schedule: Q04DX003 (ip), vehicle: saline 100 % of control | dose: 64.0 mg/kg/injection, schedule: Q01DX009 (ip), vehicle: Klucel (hydroxypropylcellulose) (HPC) 89 % of control and 91 % of control and 94 % of control | dose: 64.0 mg/kg/injection, schedule: Q01DX009 (ip), vehicle: clinical formulation 104 % of control | dose: 64.0 mg/kg/injection, schedule: Q01DX009 (ip), vehicle: other 100 % of control and 104 % of control | dose: 75.0 mg/kg/injection, schedule: Q01DX009 (ip), vehicle: saline with Tween-80 101 % of control | [7] 106 % of control | dose: 100.0 mg/kg/injection, schedule: Q01DX009 (ip), vehicle: water 91 % of control | dose: 100.0 mg/kg/injection, schedule: Q04DX003 (ip), vehicle: saline 94 % of control | dose: 128.0 mg/kg/injection, schedule: Q01DX009 (ip), vehicle: Klucel (hydroxypropylcellulose) (HPC) 91 % of control and 93 % of control | dose: 200.0 mg/kg/injection, schedule: Q04DX003 (ip), vehicle: saline with Tween-80 88 % of control | dose: 200.0 mg/kg/injection, schedule: Q04DX003 (ip), vehicle: saline 100 % of control

Oc1ccc(/C=N/Nc2nnc(N/N=C/c3ccc(O)cc3O)c3ccccc23)c(O)c1
inactive: dose: 3.13 mg/kg/injection, schedule: Q01DX009 (ip), vehicle: suspension in saline 101 % of control | dose: 6.25 mg/kg/injection, schedule: Q01DX009 (ip), vehicle: suspension in saline 98 % of control | dose: 12.5 mg/kg/injection, schedule: Q01DX009 (ip), vehicle: suspension in saline 89 % of control | [4] 90 % of control

COc1cc(C2C(C(=O)OC/C=C/c3ccc4c(c3)OCO4)C(c3cc(OC)c(OC)c(OC)c3)C2C(=O)OC/C=C/c2ccc3c(c2)OCO3)cc(OC)c1OC (configuration not stated)
inactive: [6] 98 % of control | [8] 92 % of control | dose: 200.0 mg/kg/injection, schedule: Q01DX009 (ip), vehicle: saline with Tween-80 88 % of control | dose: 400.0 mg/kg/injection, schedule: Q01DX009 (ip), vehicle: saline with Tween-80 91 % of control

N=P(N[P+](N)(c1ccccc1)c1ccccc1)(c1ccccc1)c1ccccc1
inactive: dose: 1.56 mg/kg/injection, schedule: Q01DX009 (ip), vehicle: Klucel (hydroxypropylcellulose) (HPC) 101 % of control | dose: 3.12 mg/kg/injection, schedule: Q01DX009 (ip), vehicle: Klucel (hydroxypropylcellulose) (HPC) 107 % of control | dose: 6.25 mg/kg/injection, schedule: Q01DX009 (ip), vehicle: Klucel (hydroxypropylcellulose) (HPC) 108 % of control

CNCCN(C)CCNC
inactive: [5] 98 % of control | dose: 50.0 mg/kg/injection, schedule: Q01DX009 (ip), vehicle: saline 89 % of control | [7] 95 % of control

CCN(CC)CCC(=O)c1ccccc1
inactive: dose: 3.12 mg/kg/injection, schedule: Q01DX009 (ip), vehicle: saline with Tween-80 114 % of control | [1] 108 % of control | [2] 117 % of control | [3] 107 % of control | [6] 108 % of control | [8] 107 % of control

Cl[C](Cl)(Cl)[Hg][c]1ccccc1
inactive: dose: 0.19 mg/kg/injection, schedule: Q01DX009 (ip), vehicle: saline 91 % of control | dose: 0.38 mg/kg/injection, schedule: Q01DX009 (ip), vehicle: saline 92 % of control | dose: 1.5 mg/kg/injection, schedule: Q01DX009 (ip), vehicle: saline 89 % of control

— PubChem BioAssay AID192 (DTP/NCI, 2004)
